These results are taken from US10286079B2, “Modified cytotoxins and their therapeutic use” (The Regents of the University of California, priority 2015, dated 2019).

In one data set the test system is HeLa cells. The data set is described as follows: In vitro cytotoxicity, CellTiter Blue cell viability. The format is cell-based. Particulars: 3 days. The procedure: HeLa cells were obtained from ATCC and incubated at 37° C. at 5% CO2 using DMEM supplemented with 10% FBS, and 1× of sodium pyruvate, non-essential amino acids, L-glutamine and antibiotics.
Cytotoxicity of compounds was evaluated using the CellTiter Blue assay (Promega). HeLa cells were plated in 96-well plates, at a density of 3000 cells/well 1 day before treatment. Treatments were prepared as 1000× serial stock dilutions in DMSO, then diluted into media for 1×, 0.1% DMSO treatment solutions. Plating media was removed, then treatments were added to the wells. After 3 days, the media was removed and replaced with 100 uL complete DMEM without phenol red. Then 20 uL of CellTiter Blue reagent was added, and the plates incubated for two hours at 37° C. Fluorescence was measured at 590 nm with excitation at 560 nm. To determine viability, average background fluorescence was subtracted from average fluorescence readings of the experimental wells (three wells per treatment concentration). Viability was calculated as the average background-subtracted signal in a well compared to that of a negative control well (treatment with 0.1% DMSO/media).
Viabilities were fit in GraphPad Prism using a non-linear, dose-dependent inhibition curve. The IC50 numbers given in the table reflect the concentration at which the cell death is 50% of the maximum response.
Background: Alamar Blue is a resazurin reagent that responds to reducing activity.

Another data set has as its target HSA (Homo sapiens, UniProt P02768). The data set is described as follows: in vitro. It counts as in vitro ADME. Particulars: HSA (human serum albumin), read-out: % bound to protein (converted); for fraction unbound at 1.5 μM: concentration 1.5 μM; for fraction unbound at 3 μM: concentration 3.0 μM. The procedure:
Using a dialysis-based protein binding assay according to the method described in Cohen, Plasma Protein-Binding Methods in Drug Discovery in OPTIMIZATION IN DRUG DISCOVERY: IN VITRO METHODS, Yan & Caldwell, eds., pp. 111-122 (Humana Press, Totowa, N.J., 2004), which is hereby incorporated by reference as though set forth herein in its entirety. The percentage of PTX-FA18 and the percentage of octadecanedioic acid (C18 Diacid) bound to the protein at different concentrations was measured.

Where [1] appears, read: Homo sapiens, 72 h, average of at least 3 replicates.

HSA, sequence (P02768 25-609): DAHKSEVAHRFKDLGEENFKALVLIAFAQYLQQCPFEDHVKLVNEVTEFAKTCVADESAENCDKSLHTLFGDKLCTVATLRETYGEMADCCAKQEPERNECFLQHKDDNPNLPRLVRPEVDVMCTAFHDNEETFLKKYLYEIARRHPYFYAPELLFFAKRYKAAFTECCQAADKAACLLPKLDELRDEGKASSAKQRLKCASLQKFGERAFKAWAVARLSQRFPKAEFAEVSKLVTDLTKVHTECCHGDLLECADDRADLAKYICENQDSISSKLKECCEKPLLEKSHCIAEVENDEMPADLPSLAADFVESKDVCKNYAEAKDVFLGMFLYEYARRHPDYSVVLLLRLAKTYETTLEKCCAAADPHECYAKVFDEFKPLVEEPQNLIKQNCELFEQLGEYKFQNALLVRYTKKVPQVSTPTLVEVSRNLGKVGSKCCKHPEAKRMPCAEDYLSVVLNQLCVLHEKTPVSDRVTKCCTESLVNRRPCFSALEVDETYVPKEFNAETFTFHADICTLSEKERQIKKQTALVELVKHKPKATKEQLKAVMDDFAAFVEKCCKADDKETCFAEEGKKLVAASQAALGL

The term IC50 denotes the point on the concentration scale where inhibition reaches its midpoint. High values mean a need for much substance, low ones inhibition by little substance. `CC(=O)O[C@H]1C(=O)[C@@]2(C)[C@H]([C@H](OC(=O)c3ccccc3)[C@]3(O)C[C@H](OC(=O)[C@H](OC(=O)CCCCCCCCCCCCCCC(=O)O)[C@@H](NC(=O)c4ccccc4)c4ccccc4)C(C)=C1C3(C)C)[C@]1(OC(C)=O)CO[C@@H]1C[C@@H]2O` [PTX-FA16, Paclitaxel-C16 Diacid Conjugate] came in with an IC50 with HeLa cells (setting [1]) of 137 nM.
Regarding `COC(=O)CCCCCCCCCCCCCCCCC(=O)NCCCCCC(=O)O[C@@H](C(=O)O[C@H]1C[C@@]2(O)[C@@H](OC(=O)c3ccccc3)[C@@H]3[C@]4(OC(C)=O)CO[C@@H]4C[C@H](O)[C@@]3(C)C(=O)[C@H](OC(C)=O)C(=C1C)C2(C)C)[C@@H](NC(=O)c1ccccc1)c1ccccc1` [PTX-FAE18-Aa, Paclitaxel-C18 Diacid Conjugate+Amino Acid Spacer], the IC50 in the data set on HeLa cells (Homo sapiens, 72 h, one experiment (*)) turned out to be 2330 nM. This counts as single-digit micromolar.
The compound `CC(=O)O[C@H]1C(=O)[C@@]2(C)[C@H]([C@H](OC(=O)c3ccccc3)[C@]3(O)C[C@H](OC(=O)[C@H](OC(=O)CCCCCCC/C=C/CCCCCCCC(=O)O)[C@@H](NC(=O)c4ccccc4)c4ccccc4)C(C)=C1C3(C)C)[C@]1(OC(C)=O)CO[C@@H]1C[C@@H]2O` [PTX-FAu18, Paclitaxel-uC18 Diacid Conjugate] yielded an IC50 in the data set on HeLa cells (setting [1]) of 40.1 nM.
In the case of `O=C(O)CCCCCCCCCCCCCCCCC(=O)O` [C18 Diacid, octadecanedioic acid], at HSA, the fraction unbound at 1.5 μM was 0.009 and the fraction unbound at 3 μM is 0.002. In addition, the fraction unbound at 20 μM at HSA (concentration 20.0 μM) was 0.026.
As to `CC(=O)O[C@H]1C(=O)[C@@]2(C)[C@H]([C@H](OC(=O)c3ccccc3)[C@]3(O)C[C@H](OC(=O)[C@H](OC(=O)CCCCCCCCCCCCCCCCCCC(=O)O)[C@@H](NC(=O)c4ccccc4)c4ccccc4)C(C)=C1C3(C)C)[C@]1(OC(C)=O)CO[C@@H]1C[C@@H]2O` [PTX-FA20, Paclitaxel-C20 Diacid Conjugate], the IC50 in the data set with HeLa cells (setting [1]) is 27.8 nM.
For the compound `CC(=O)O[C@H]1C(=O)[C@@]2(C)[C@H]([C@H](OC(=O)c3ccccc3)[C@]3(O)C[C@H](OC(=O)[C@H](OC(=O)CCCCCCCCCCCCCCCCC(=O)O)[C@@H](NC(=O)c4ccccc4)c4ccccc4)C(C)=C1C3(C)C)[C@]1(OC(C)=O)CO[C@@H]1C[C@@H]2O` [PTX-FA18, Paclitaxel-C18 Diacid Conjugate], on HSA, the fraction unbound at 1.5 μM was 0.005 and the fraction unbound at 3 μM is 0.003. Also, the IC50 with HeLa cells (setting [1]) was 64.4 nM.
In turn, `CC[C@@]1(OC(=O)CCCCCCCCCCCCCCCCC(=O)O)C(=O)OCc2c1cc1n(c2=O)Cc2cc3ccccc3nc2-1` [CPT-FA18, Camptothecin-C18 Diacid Conjugate] showed an IC50 with HeLa cells (setting [1]) of 11000 nM.
“Methotrexate-C18 Diacid Conjugate [MTX-FA18]” registered an IC50 with HeLa cells (average of at least 3 replicates) of 3010 nM. This counts as single-digit micromolar.
